We go through 8 compounds from US20240282401A1, “METHODS FOR ENZYME ENGINEERING” (The University of Manchester, priority 2021, published 2024).

The experiment has as its target T1, HDNO D6 (Paenarthrobacter nicotinovorans, UniProt P08159, A237T/A42S/E349L/E351D/N413H/V430A).
T1 construct: This full-length gene design was then used to introduce genetic diversity to create a library; His tag (N); made in house; host or cells: E. coli BL21 (DE3)
As to the kind of experiment: Biotransformation turnover frequencies of amine substrates (GC-FID). The following applies: for TOF: HDNO D6 0.05 mg mL^−1, 10 mM substrate, 30° C., pH 8 100 mM buffer, conversions after 10 min; for Fold increase vs D2: TOF of HDNO D6 over HDNO D2 (0.2 mg ml^−1). Type of experiment: biochemical, Arthrobacter nicotinovorans. The procedure: Chiral normal phase HPLC was performed on an Agilent HPLC system (G1379A degasser, G1312A binary pump, a G1367A well plate autosampler unit, a G1316A temperature-controlled column compartment and a G1315C diode array detector) (Agilent Technologies Inc., Santa Clara, CA) equipped with a CHIRALCEL OD-H (250 mm length, 4.6 mm diameter, 5 μm particle size) analytical column (Daicel Corp., Osaka, Japan). The typical injection volume was 10 μL and chromatograms were monitored at 265 nm. Gas chromatographic (GC) analysis was performed on an Agilent 6850 GC (Agilent Technologies Inc., Santa Clara, CA) with a flame ionization detector and autosampler equipped with a HP-1 column of length 30 m, 0.32 mm inner diameter and 0.25 μm film thickness (Agilent Technologies Inc., Santa Clara, CA).
A typical 500 μL reaction mixture in a 2 mL tube contained 10 mM amine, 0.05 to 1 mg mL^−1 of purified HDNO variant in pH 8 100 mM NaPi buffer. Reactions were incubated at 30° C. with 250 r.p.m shaking for different reaction times, after which they were quenched by the addition of 50 μL of 10 M NaOH and extracted twice with 500 μL tert-butyl methyl ether (HPLC grade, Merck Life Science UK Limited, Gillingham). The organic fractions were combined and dried over anhydrous MgSO4 and analysed by GC-FID (conversions) or HPLC (enantiomeric ratios) on a chiral stationary phase (see Chromatography section for details). Turnover frequencies (TOF, min^−1) were calculated as the moles of product formed/moles of enzyme min^−1 based on conversions obtained by GC-FID analysis (see Chromatography method). The same response factor was considered for both substrate and product.

T1 sequence (P08159 other isoform, or with tags, fused parts or gaps A42S/A237T/E349L/E351D/N413H/V430A/C432S): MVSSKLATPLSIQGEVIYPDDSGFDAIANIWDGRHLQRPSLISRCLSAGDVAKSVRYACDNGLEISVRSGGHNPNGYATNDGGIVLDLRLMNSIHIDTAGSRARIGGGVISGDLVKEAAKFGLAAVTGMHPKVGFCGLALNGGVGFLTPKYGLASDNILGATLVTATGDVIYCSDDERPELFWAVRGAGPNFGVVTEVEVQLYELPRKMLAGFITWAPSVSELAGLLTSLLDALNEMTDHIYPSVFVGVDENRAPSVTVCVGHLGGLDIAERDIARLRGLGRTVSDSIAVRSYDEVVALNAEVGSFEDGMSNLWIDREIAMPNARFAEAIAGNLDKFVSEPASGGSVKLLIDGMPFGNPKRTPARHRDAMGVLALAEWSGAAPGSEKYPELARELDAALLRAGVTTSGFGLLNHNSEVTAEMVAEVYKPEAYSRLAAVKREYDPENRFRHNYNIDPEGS

On to `c1ccc([C@H]2CCCN2)cc1` [Mutant 1a, (R)-2-phenylpyrrolidine], for which the TOF is 79.8 min⁻¹ and the “Fold increase vs D2” value was 5.8 fold.
As to `CN(C)c1ccc(C2CCCN2)cc1` (centres unmarked) [Mutant 1b, 2-(4-dimethylaminophenyl)-pyrrolidine], the TOF stood at 181.2 min⁻¹ and the “Fold increase vs D2” value is on record as 10.2 fold.
`c1ccc(CCC2CCCN2)cc1` (centres unmarked) [Mutant 1c]: the TOF amounted to 28.8 min⁻¹ and the “Fold increase vs D2” value is 5.9 fold.
`Clc1cccc(C2CCCN2)c1` (centres unmarked) [Mutant 1d]: the TOF stood at 135.6 min⁻¹.
`c1ccc(CCC2CCCCN2)cc1` (centres unmarked) [Mutant 1f] had a TOF of 8.4 min⁻¹.
Same read-out and setting: the figure for `CC(N)c1ccccc1` (centres unmarked) [Mutant 1g] is 0.66 min⁻¹.
On the same count and under the same terms, for `CCCCC[C@@H](C)N` [Mutant 1h] the value was 0.42 min⁻¹.
Consider `C1CC2CNCC2C1` (centres unmarked) [Mutant 1i], for which the TOF entry is on record as “no measurable activity”.
